{
  "source": "patent US20240174632A1",
  "about": "“INHIBITING HUMAN INTEGRIN (ALPHA-4) (BETA-7)” (Morphic Therapeutic, Inc., priority 2019, published 2024)",
  "key": {"integrin α4β7": {"biological_target": "T1, integrin α4β7 (Homo sapiens, UniProt P13612+P26010)", "T1 sequence (P13612 34-1032)": "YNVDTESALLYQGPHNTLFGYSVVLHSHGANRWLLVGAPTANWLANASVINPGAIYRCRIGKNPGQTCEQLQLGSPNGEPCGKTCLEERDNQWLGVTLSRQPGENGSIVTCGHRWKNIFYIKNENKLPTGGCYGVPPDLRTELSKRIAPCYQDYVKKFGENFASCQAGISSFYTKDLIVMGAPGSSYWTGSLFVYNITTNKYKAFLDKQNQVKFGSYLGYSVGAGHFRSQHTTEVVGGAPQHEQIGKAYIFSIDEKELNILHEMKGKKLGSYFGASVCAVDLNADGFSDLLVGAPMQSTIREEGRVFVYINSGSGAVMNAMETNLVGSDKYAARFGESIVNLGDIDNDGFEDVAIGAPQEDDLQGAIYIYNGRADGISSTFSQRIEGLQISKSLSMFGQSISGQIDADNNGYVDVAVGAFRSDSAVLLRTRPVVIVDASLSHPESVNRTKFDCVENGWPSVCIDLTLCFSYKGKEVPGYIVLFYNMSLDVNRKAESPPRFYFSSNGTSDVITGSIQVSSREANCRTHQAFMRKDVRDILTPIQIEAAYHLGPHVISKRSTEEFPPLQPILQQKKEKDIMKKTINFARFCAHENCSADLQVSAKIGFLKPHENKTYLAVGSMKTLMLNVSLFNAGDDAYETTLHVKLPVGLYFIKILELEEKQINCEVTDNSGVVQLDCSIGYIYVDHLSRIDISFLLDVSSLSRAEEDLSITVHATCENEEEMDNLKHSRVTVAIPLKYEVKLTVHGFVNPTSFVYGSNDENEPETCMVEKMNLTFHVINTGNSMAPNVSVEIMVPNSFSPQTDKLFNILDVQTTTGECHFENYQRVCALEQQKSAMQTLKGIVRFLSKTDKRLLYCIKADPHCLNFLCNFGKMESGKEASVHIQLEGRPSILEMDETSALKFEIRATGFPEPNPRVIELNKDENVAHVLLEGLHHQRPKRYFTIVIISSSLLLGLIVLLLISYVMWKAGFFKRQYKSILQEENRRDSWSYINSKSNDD", "T1 sequence (P26010 20-798)": "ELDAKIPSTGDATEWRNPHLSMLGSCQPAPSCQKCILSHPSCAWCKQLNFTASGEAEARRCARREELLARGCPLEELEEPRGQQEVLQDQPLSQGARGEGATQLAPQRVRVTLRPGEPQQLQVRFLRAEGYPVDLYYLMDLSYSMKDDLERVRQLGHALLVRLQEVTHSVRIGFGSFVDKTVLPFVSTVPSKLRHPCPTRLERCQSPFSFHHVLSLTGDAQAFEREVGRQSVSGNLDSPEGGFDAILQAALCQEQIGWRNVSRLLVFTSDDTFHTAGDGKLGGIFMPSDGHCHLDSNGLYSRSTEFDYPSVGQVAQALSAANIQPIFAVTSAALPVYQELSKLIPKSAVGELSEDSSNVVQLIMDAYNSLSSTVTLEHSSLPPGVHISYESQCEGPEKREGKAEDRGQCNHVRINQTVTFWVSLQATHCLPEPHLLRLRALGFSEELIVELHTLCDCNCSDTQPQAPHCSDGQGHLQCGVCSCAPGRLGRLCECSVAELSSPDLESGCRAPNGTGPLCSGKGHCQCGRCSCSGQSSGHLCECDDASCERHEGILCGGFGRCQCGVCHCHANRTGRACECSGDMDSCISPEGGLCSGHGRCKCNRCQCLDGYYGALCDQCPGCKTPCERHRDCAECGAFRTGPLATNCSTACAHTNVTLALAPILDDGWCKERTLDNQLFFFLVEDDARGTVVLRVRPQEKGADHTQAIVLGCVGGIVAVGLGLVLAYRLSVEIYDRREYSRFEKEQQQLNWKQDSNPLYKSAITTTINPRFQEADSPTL", "assay": "Fluorescence Polarization (FP) assay for α4β7 binding, competition with fluorescein-labeled peptide", "details": "6.5 nM integrin α4β7, 3 nM fluorescein-labeled peptide, 2 mM MnCl2; Tables 3A, 3B, 4; read-out: FP Assay (Example 5) IC50", "procedure": "(§1) Three in vitro assays were used to examine the α4β7 mechanistic process used by cells: 1) ligand:receptor affinity, 2) the avidity of those interactions on a cell's surface, and 3) how those interactions fare under an imposing force. In Example 5, a Fluorescence Polarization (FP) assay is used to measure compound activity through binding competition with the fluorescein-labeled peptide. In Example 6, the potency of compounds against α4β7 is measured in the cell-based ligand binding assay (LBA), using RPMI 8866 cells incubated with the compound samples in competition with soluble MAdCAM-1 ligand. In Example 7, activity of compounds is evaluated in a cell adhesion assay that mechanistically tests what occurs in vivo when trafficking cells utilize α4β7 to adhere to MAdCAM-1 expressing HEVs of the gut during the extravasation process. […] Unattached cells are removed and the remaining adherent cells are quantified.\nFluorescence Polarization (FP) assays were used to measure compound activity through binding competition with the fluorescein-labeled peptide […]{Lys(FITC)}. […] After the fluorescein-labeled peptide was added, the assay was incubated at 22° C. for 1 hour and fluorescence polarization was measured. IC50 values were determined by non-linear regression, four-parameter curve fitting."}, "α4β7 [1]": {"biological_target": "T2, α4β7 (Homo sapiens, UniProt P13612+P26010)", "T2 construct": "endogenous in cells; host or cells: RPMI 8866 cells", "T2 sequence (P13612 34-1032)": "T1 sequence (P13612 34-1032)", "T2 sequence (P26010 20-798)": "T1 sequence (P26010 20-798)", "assay": "Cell-based ligand binding assay (LBA), RPMI 8866 cells, competition with soluble MAdCAM-1-Fc", "details": "MAdCAM-1-Fc Dylight 650, flow cytometry, Tables 3A, 3B, 4, read-out: LB Assay (Example 6) IC50", "procedure": "as §1\n5 ul of 33 nM MAdCAM-1-Fc fluorescently labeled with Dylight 650 in 50 mM HEPES pH 7.3, 150 mM sodium chloride, and 1% bovine serum albumin was added to the cells. […] Fluorescence intensity for each cell was measured via flow cytometry. […] Median fluorescence intensity for Dylight 650 was determined for each sample and concentration-response curves were analyzed for IC50 values using 4-parameter non-linear regression analysis."}, "α4β7 [2]": {"biological_target": "T2, α4β7", "assay": "Cell adhesion assay, RPMI8866 cells adhering to MAdCAM coated plates", "type": "cell-based", "details": "RPMI8866 cells on recombinant human MAdCAM coated plates; Tables 3A, 3B, 4; read-out: CA Assay (Example 7) IC50", "procedure": "as §1, with “quantified. […]” for “quantified.”\nTo each well of a 96 well plate, 100 ug of recombinant human MAdCAM in 100 ul PBS is added and incubated overnight at 4° C. […] Plate is incubated on shaker for 2 minutes at 200 RPM followed by another 8 minutes off shaker before having the luminescence read on a Biotek Citation 5 plate reader. Raw data is converted to % inhibition compared to bottom of curve and analyzed using a 4-parameter non linear curve in Prism to determine IC50 and IC90."}},
  "data": [
    {"molecule": "COc1ccc(C)c(-c2cc(C)c(F)c([C@H](CC(=O)O)NC(=O)C(CC(C)C)n3cc(CCN4CCC4)c(C(F)(F)F)cc3=O)c2)c1C", "note": "(single isomer, unassigned) [AG-P2]", "values": [
      {"measurement": "IC50", "setting": "integrin α4β7", "value": "< 10", "unit": "nM"},
      {"measurement": "IC50", "setting": "α4β7 [1]", "value": "≤ 10", "unit": "nM"}
    ]},
    {"molecule": "Cc1cc(=O)n([C@@H](CC(C)C)C(=O)N[C@@H](CC(=O)O)c2cc(-c3c(C)cccc3C)cc(F)c2F)cc1CCN1CC(F)C1", "note": "[D-P2, (3S)-3-(4,5-difluoro-2′,6′-dimethylbiphenyl-3-yl)-3-(2-(5-(2-(3-fluoroazetidin-1-yl)ethyl)-4-methyl-2-oxopyridin-1(2H)-yl)-4-methylpentanamido)propanoic acid]", "values": [
      {"measurement": "IC50", "setting": "integrin α4β7", "value": "< 10", "unit": "nM"},
      {"measurement": "IC50", "setting": "α4β7 [2]", "value": "< 5", "unit": "nM"}
    ]}
  ]
}
